The source of these data is patent US8202696B2, “Means for use in treating diseases correlated with or caused by non-physiological levels of microtubule-associated PP2Ac” (Max-Planck-Gessellschaft zur Forderung der Wissenschaften …, priority 2002, dated 2012).

Entries after “also recorded” stand apart in the source; their conditions may differ.

In test [1] the test system is PP2A. Kind of test: hFused phosphorylation in vitro, cytosol incubated with or without fostriecin, Western blot. To be noted: fostriecin 500 nM, 4 h, 30° C. Format: biochemical. The method, then: 8×10^5 cells were transfected with hFused-V5 (aa 1-1335) using Qiagen Polyfect transfection reagent according to the manufacturer's instructions. Cytosol of hFused-V5 overexpressing cells was incubated for 4 h in the presence or absence of fostriecin (500 nM) at 30° C. Proteins (200 μg protein per lane) were separated on a 6% SDS-gel, blotted on PVDF-membranes and incubated with anti-V5-antibody (1:3000). Secondary HRP-antimouse-antibody was diluted 1:2000.
Fostriecin is a highly specific inhibitor of PP2A activity.
Cytosol of V5-tagged hFused-overexpressing cells was incubated for 4 h in the absence (line1) and presence (line2) of fostriecin at 30° C. Subsequently proteins were separated on an SDS-Page, blotted and incubated with an anti-V5 antibody.

For test [2], the system named is Gli3. As to the kind of experiment: Localization of overexpressed GFP-tagged Gli3 in HeLa cells. Type of test: cell-based. To be noted: GFP-Gli3 plus B-Box overexpressing HeLa cells. The method, then: 1×10^5 HELA cells per well of a 6-well plate were transfected with Qiagen Polyfect transfection reagent according to the manufacturer's instructions. The ratio of the amount of DNA to the amount of polyfect transfection reagent was 3 μg DNA/10 μl Polyfect. Constructs used for expression in HELA were the following: GFP-GLI3 (aa 18-1549), GLI3-GFP (aa 1-1522), MYC-GLI3 (aa 18-1596), FLAG-GLI3 (aa18-1596), MYC-B-BOX1 (aa 110-167 of the MID1 protein), ALPHA4-V5 (aa 1-339). 24 h after transfection immunofluorescence was performed. GFP-constructs were treated as described in Schweiger et al., 1999. Immunofluorescence with MYC-tagged and FLAG-tagged constructs was done according to Trockenbacher et al., 2001. FLAG-tagged constructs were detected with anti-FLAG-antibody diluted 1:500, the secondary antibody FITC-antimouse was diluted 1:1000. For MYC-tagged constructs anti-MYC-antibody 1:300 and CY3-antirabbit 1:1000 were used. […]
Overexpressed Gli3 is predominantly localized in the nucleus (FIG. 10, top left).

For test [3], the system named is proteasome. As to the kind of experiment: Polyubiquitinated proteins in the MID1 immune complex, COS7 cells. Type of test: cell-based. To be noted: MID1-myc, anti-myc precipitate. On the procedure: Immunoprecipitation, western blotting and immunofluorescence. For COS7 cells, we lysed in IP1 buffer 8×10^6 cells transfected with pBudCE4 vector carrying the respective cDNAs. After preclearing the lysate with 50 μl protein A-agarose (slurry), we incubated supernatants with 2 μg anti-V5 overnight at 4° C. and then for 2 h with 75 μl (slurry) protein A-agarose. After three washes in IP1 buffer, we eluted the proteins with 1× Laemmli buffer at 95° C. MID1-V5 expression was optimal 48 h after doxycyclin removal from 293 tet-off cell lines. We then lysed cells in IP1 buffer and carried out immunoprecipitation with 2 μg anti-V5. We boiled proteins in 1×SDS-PAGE buffer, separated them on 10% and 12% SDS gels, blotted on PVDF membranes (Roche) and blocked and incubated with the respective primary antibody according to the manufacturer's instructions. Because several RING-finger proteins interact with target proteins and thereby elicit their ubiquitin-dependent degradation^8-11, we examined interaction of MID1 with polyubiquitinated proteins. We transfected COS7 cells either with MID1 cDNA or, as a control, with cDNA encoding protein kinase C (PKC), each tagged with a C-terminal V5 epitope or an empty vector, respectively. We treated the cells with 25 μM of LLnL, a proteasome inhibitor, 24 h after transfection to enrich for ubiquitinated proteins. […]

In test [4] the target is T1, α4 (Homo sapiens, UniProt P78318).
T1 construct: expressed in transfected cells; host or cells: L40 yeast strain
T1 sequence (P78318 1-339): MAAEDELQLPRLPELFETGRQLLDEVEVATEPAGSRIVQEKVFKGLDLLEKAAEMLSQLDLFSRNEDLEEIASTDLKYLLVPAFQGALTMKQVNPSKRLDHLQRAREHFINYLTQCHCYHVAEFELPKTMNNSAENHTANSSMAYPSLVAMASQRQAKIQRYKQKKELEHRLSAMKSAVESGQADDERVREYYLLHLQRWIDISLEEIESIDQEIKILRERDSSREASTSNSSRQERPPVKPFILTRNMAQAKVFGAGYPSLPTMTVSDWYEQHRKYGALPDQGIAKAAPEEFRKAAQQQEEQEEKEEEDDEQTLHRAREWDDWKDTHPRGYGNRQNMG
As to the kind of experiment: Yeast two-hybrid interaction of MID1 constructs with α4. Format: binding. The method, then: Yeast two-hybrid screening. For yeast two-hybrid screening, we cloned full-length MID1 cDNA into the pBTM116 vector. We then cotransfected this with a human fetal brain cDNA Matchmaker library in the pGAD10 vector (Clontech) into the L40 yeast strain. We plated the transformants on synthetic medium lacking histidine, leucine and tryptophan (his^− leu^− trp^−) and containing 3-amino-1,2,4, triazole, and incubated the plates at 30° C. for 5 days. We assayed his-positive colonies for β-galactosidase activity with a filter assay^47. We isolated plasmid DNA from β-galactosidase-positive clones and cotransfected this again into L40 yeast with MID1-pBTM116 and controls. We selected plasmids that produced growth on selective plates only in combination with MID1-pBTM116, which were assumed to code for MID1 interactors, and sequenced them.
Activity of β-galactosidase in yeast liquid cultures. We assayed cells for β-galactosidase activity by the o-nitrophenyl-β-D-galactopyranoside (ONPG) method^47.
MID1 is a multidomain protein harboring a RING finger, two B-boxes, a coiled-coil region, a fibronectin type III domain and a B30.2 domain^3—all of which are candidate regions for specific protein-protein interactions. To clarify which domain specifically binds α4, we tested several deletion mutants of MID1 for interaction with α4 in the yeast two-hybrid system. […]

For test [5], the system named is tau protein. Kind of test: Tau-1 and pan-Tau immunofluorescence in transfected postnatal sympathetic neurons. To be noted: compared to non-transfected neurons = 100%, two days after transfection. Type of test: cell-based, rat. The method, then:
Peripheral sympathetic neurons were obtained from postnatal day 1-3 rats. […] Following mechanical dissociation the cell suspension was filtered through a 40 μm nylon mesh and seeded at 6 SCGs per well into uncoated Falcon dishes for preplating purposes. After 4 hours neurons were transferred into glass floor dishes (Willco Wells B.V., gwst 3522, 3.8 cm^2 area/dish) coated with poly-D-lysine/laminin. Neurons were maintained in RPMI medium containing antibiotics, N2 additive (Invitrogen) and 100 ng/ml nerve growth factor (NGF; Sigma) at 37° C. in a humidified atmosphere with 5% CO2.
Neurons were transfected 2 hours after seeding applying the biolistic approach. This method uses a hand held gun to bombard dissociated neurons at high velocity with micron-size gold particles loaded with DNA. The coating of gold particles with DNA was achieved using a modification of the manufacturer's instructions (Bio-Rad Laboratories). For preparation of 35 cartridges 25 mg gold particles (1.6 μm diameter) were suspended in 50 μl of 0.05 M spermidine. After vortexing and sonication for 5 seconds, 50 μg plasmid DNA dissolved in 50 μl TE buffer was added (for co-transfection experiments, 80 μg were used, i.e., 40 μg Plasmid I+40 μg Plasmid 2). The amount of gold particles and DNA corresponds to a microcarrier loading quantity (MLQ) of about 0.7 (mg/cartridge) and to a DNA loading ratio (DLR) of 2 (μg/mg) for single transfection experiments. DNA, spermidine and gold were then mixed for 5 sec in a variable speed vortexer. At low vortexing speed, 50 μl 1 M CaCl2 was added dropwise to the mixture for association of DNA with the gold particles followed by precipitation for 10 min at room temperature. The supernatant was removed and the pellet rinsed with 800 μl of 100% ethanol. Washing was repeated two times with centrifugation steps at 3000 g between each wash. […]
A fully motorized Zeiss Axiovert 100M microscope equipped for inverted fluorescence was used for visualization of fluorescent neurons. […]

With `C[C@@](O)(/C=C/[C@H]1CC=CC(=O)O1)[C@@H](C[C@@H](O)\C=C/C=C\C=C\CO)OP(=O)(O)O` [fostriecin], in test [1], the “Phosphorylated hFused-band on Western blot” value is reported as “clear enrichment of the phosphorylated hFused-band”. In test [1] (cytosol of V5-tagged hFused-overexpressing cells, control without fostriecin 1.8×), the “Ratio between phosphorylated and dephosphorylated hFused-form” value amounted to 18 ×. The “Gli3 localization in presence of B-Box overexpression” value in test [2] was “reverse the observed effect”.

For the compound `CC(=O)N[C@@H](CSC(=O)[C@]1([C@@H](O)C(C)C)NC(=O)[C@H](C)[C@@H]1O)C(=O)O` [lactacystin], the “High-molecular weight proteins in MID1-myc-containing precipitates” value in test [3] is on record as “enrichment of high-molecular weight proteins”.

With “MID2: protein highly similar in amino acid sequence (83%) to MID1 (PTTAMSSERIACQFCEQDPPRDAVKTCITCEVSYCDRCLRATHPNKKPFTSHRLVEPV; listed as Homo sapiens)”, in test [4], the “Interaction with α4” value was “binds α4”.

Regarding “inactive mutated form of the B-BOX1: Bbox1 with exchange of alanine 130 to threonine, abolishes association with α4 (ANTMTSAEKVLCQFCDQDPAQDTVKTCVTCEVSYCDECLKATHPNKKPFTGHRLIEPI) [reference compound]”, the “Tau-1 immunoreactivity (dephosphorylated tau)” value in test [5] was “does not show this effect; also recorded: do not exhibit different fluorescent levels”.
